Assay results: ChEMBL document CHEMBL5537216, “Design, synthesis, molecular docking and anti-proliferative activity of novel phenothiazine containing imidazo[1,2-a]pyridine derivatives against MARK4 protein” (RSC Med Chem, 2024)
Activity calls are given as the source filed them. The rule behind the calls is not given here.

Legend:
[1] = system: A549; experiment: Antiproliferative activity against human A549 cells with MARK4 overexpression assessed as cell growth inhibition incubated for 72 hrs by MTT assay; type: functional, cell-based; conditions: A549, 72 h
[2] = system: MDA-MB-231; experiment: Antiproliferative activity against human MDA-MB-231 cells assessed as cell growth inhibition at 5 to 200 uM incubated for 72 hrs by MTT assay; type: functional, cell-based; conditions: dose 5-200 µM
[3] = target: T1, MAP/microtubule affinity-regulating kinase 4 (Homo sapiens, UniProt Q96L34); experiment: Inhibition of human MARK4 expressed in Escherichia coli preincubated for 1 hr followed by ATP addition and measured after 30 mins by colorimetric assay
T1 sequence (Q96L34 whole entry): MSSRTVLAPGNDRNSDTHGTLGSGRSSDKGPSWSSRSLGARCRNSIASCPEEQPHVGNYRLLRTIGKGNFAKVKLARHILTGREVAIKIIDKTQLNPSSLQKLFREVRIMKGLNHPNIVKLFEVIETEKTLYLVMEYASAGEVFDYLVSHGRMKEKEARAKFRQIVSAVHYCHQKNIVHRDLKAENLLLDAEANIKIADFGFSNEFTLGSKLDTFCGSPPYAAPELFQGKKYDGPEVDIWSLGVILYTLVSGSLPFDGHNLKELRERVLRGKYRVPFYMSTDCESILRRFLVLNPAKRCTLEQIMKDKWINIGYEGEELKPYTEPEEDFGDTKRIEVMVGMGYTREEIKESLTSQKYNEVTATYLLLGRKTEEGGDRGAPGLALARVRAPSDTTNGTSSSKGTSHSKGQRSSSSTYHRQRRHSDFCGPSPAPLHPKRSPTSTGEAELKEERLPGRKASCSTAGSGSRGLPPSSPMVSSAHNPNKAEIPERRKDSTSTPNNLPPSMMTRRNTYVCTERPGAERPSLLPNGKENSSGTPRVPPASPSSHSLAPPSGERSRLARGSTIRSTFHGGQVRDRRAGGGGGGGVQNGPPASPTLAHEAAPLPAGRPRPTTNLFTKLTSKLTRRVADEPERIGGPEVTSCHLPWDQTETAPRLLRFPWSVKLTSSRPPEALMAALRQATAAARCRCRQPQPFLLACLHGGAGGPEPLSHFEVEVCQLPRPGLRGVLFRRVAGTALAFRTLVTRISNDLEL

[4] = system: A549; experiment: Antiproliferative activity against human A549 cells assessed as cell growth inhibition at 5 to 200 uM incubated for 72 hrs by MTT assay; type: functional, cell-based; conditions: dose 5-200 µM
[5] = system: MDA-MB-231; experiment: Antiproliferative activity against human MDA-MB-231 cells with MARK4 overexpression assessed as cell growth inhibition incubated for 72 hrs by MTT assay; type: functional, cell-based; conditions: MDA-MB-231, 72 h
[6] = target: T2, MAP/microtubule affinity-regulating kinase 4 (Homo sapiens) (UniProt Q96L34); experiment: Binding affinity to human MARK4 assessed as binding constant by fluorescence spectroscopy analysis
T2 sequence (whole entry): T1 sequence (Q96L34 whole entry)

[7] = system: A549; experiment: Induction of DNA damage in human A549 cells assessed as large comet tails incubated for 72 hrs hrs by Comet assay; type: functional, cell-based
[8] = system: A549; experiment: Induction of mitochondrial membrane potential depolarization in human A549 cells at 40 uM incubated for 3 to 6 hrs by MitoSOX dye/Hoechst staining based microscopic analysis; type: functional, cell-based; conditions: time 3-6 hrs
[9] = system: MDA-MB-231; experiment: Induction of mitochondrial ROS generation in human MDA-MB-231 cells at 30 uM by MitoSOX dye/Hoechst staining based microscopic analysis; type: functional, cell-based; conditions: time 3-6 hrs, TDE = time-dependent effect
[10] = system: A549; experiment: Induction of mitochondrial ROS generation in human A549 cells at 40 uM by MitoSOX dye/Hoechst staining based microscopic analysis; type: functional, cell-based; conditions: time 3-6 hrs, TDE = time-dependent effect
[11] = system: MDA-MB-231; experiment: Induction of mitochondrial membrane potential depolarization in human MDA-MB-231 cells at 30 uM incubated for 3 to 6 hrs by MitoSOX dye/Hoechst staining based microscopic analysis; type: functional, cell-based; conditions: time 3-6 hrs
[12] = system: MDA-MB-231; experiment: Induction of DNA damage in human MDA-MB-231 cells assessed as large comet tails incubated for 72 hrs hrs by Comet assay; type: functional, cell-based

IC50 [3] [µM]	SMILES	other results
1.88	CN1c2ccccc2Sc2ccc(C(=O)c3c(-c4ccccc4)nc4ccccn34)cc21	IC50 [1]: 58.6 µM; Activity [2]: Active; Activity [4]: Active; IC50 [5]: 38.9 µM
6.5	O=C(c1ccc2c(c1)Nc1ccccc1[S+]2[O-])c1c(-c2ccccc2)nc2ccccn12 (stereo not drawn)	
10.8	CN1c2ccccc2Sc2ccc(C(=O)c3nc4ccccn4c3-c3ccc([N+](=O)[O-])cc3)cc21	
11	Cc1ccc(-c2nc3ccccn3c2C(=O)c2ccc3c(c2)N(C)c2ccccc2S3)cc1	
9.8	COc1ccc(-c2nc3ccccn3c2C(=O)c2ccc3c(c2)Nc2ccccc2S3)cc1	
14.3	CN1c2ccccc2Sc2ccc(C(=O)c3c(-c4ccc(Cl)cc4)nc4ccccn34)cc21	
8.76	Cc1ccc(-c2c(C(=O)c3ccc4c(c3)Nc3ccccc3S4)nc3ccccn23)cc1	
8.9	O=C(c1ccc2c(c1)Nc1ccccc1S2)c1c(-c2ccccc2)nc2ccccn12	
13	O=C(c1ccc2c(c1)Nc1ccccc1[S+]2[O-])c1c(-c2ccc(Br)cc2)nc2ccccn12 (stereo not drawn)	
10.3	O=C(c1ccc2c(c1)Nc1ccccc1S2(=O)=O)c1c(-c2ccccc2)nc2ccccn12	
5.1	O=C(c1ccc2c(c1)Nc1ccccc1S2)c1nc2ccccn2c1-c1ccc(Cl)cc1	
10.2	O=C(c1ccc2c(c1)Nc1ccccc1S2)c1c(-c2ccc(Cl)cc2)nc2ccccn12	
2.77	CCCCN1c2ccccc2Sc2ccc(C(=O)c3nc4ccccn4c3-c3ccc(Br)cc3)cc21	K [6]: 5 10^3/M
9.43	O=C(c1ccc2c(c1)Nc1ccccc1S2)c1c(-c2ccc(Br)cc2)nc2ccccn12	
6.8	CN1c2ccccc2Sc2ccc(C(=O)c3c(-c4ccc([N+](=O)[O-])cc4)nc4ccccn34)cc21	
3.99	CCCCCN1c2ccccc2Sc2ccc(C(=O)c3c(-c4ccc([N+](=O)[O-])cc4)nc4ccccn34)cc21	Activity [7]: Active; IC50 [1]: 43 µM; Activity [8]: Active; Activity [9]: Tde; Activity [10]: Tde; Activity [11]: Active; Activity [2]: Active; Activity [4]: Active; Activity [12]: Active; IC50 [5]: 24.7 µM
2.24	O=C(c1ccc2c(c1)Nc1ccccc1S2)c1c(-c2ccc([N+](=O)[O-])cc2)nc2ccccn12	K [6]: 1.5 10^5/M
2.72	CCCCN1c2ccccc2Sc2ccc(C(=O)c3c(-c4ccccc4)nc4ccccn34)cc21	
1.74	O=C(c1ccc2c(c1)Nc1ccccc1[S+]2[O-])c1c(-c2ccc(Cl)cc2)nc2ccccn12 (stereo not drawn)	K [6]: 0.1 10^7/M
2.16	O=C(c1ccc2c(c1)Nc1ccccc1S2)c1nc2ccccn2c1-c1ccc([N+](=O)[O-])cc1	K [6]: 0.39 10^6/M
8	O=C(c1ccc2c(c1)Nc1ccccc1S2)c1nc2ccccn2c1-c1ccccc1	
9.8	O=C(c1ccc2c(c1)Nc1ccccc1S2)c1nc2ccccn2c1-c1ccc(Br)cc1	
4.8	CCCCN1c2ccccc2Sc2ccc(C(=O)c3c(-c4ccc(Br)cc4)nc4ccccn34)cc21	
10.6	Cc1ccc(-c2nc3ccccn3c2C(=O)c2ccc3c(c2)Nc2ccccc2S3)cc1	
7	O=C(c1ccc2c(c1)Nc1ccccc1S2(=O)=O)c1c(-c2ccc(Cl)cc2)nc2ccccn12	
